From patent US20210340500A1, “METHOD FOR PRODUCING INTESTINAL CELLS FROM PLURIPOTENT STEM CELLS” (TOKYO INSTITUTE OF TECHNOLOGY, priority 2018, published 2021)

How the values were obtained:
P-gp = P-gp (Homo sapiens, UniProt P08183)
Caco-2 cells [1] = settings: cited from earlier work
[2] = system: hiPSC-derived enterocytes
CYP3A4 expression = experiment: CYP3A4 mRNA expression in hiPSC-derived enterocytes by real time PCR; type: cell-based, human; settings: day 21 of differentiation
Description: For intestine differentiation, the day 10 intestinal precursor cell stock was freeze thawed, and plated onto a rehydrated vitrigel membrane (CVM) 24-well insert (ad-MED Vitrigel™ 2, KANTO KAGAKU, culture area: 0.33 cm^2/insert) in M2 medium at a concentration of 1.6×10^5 cells/well. Y-27632 (WAKO: 251-00514) was added to the medium upon plating for the first 2 days. The cells were cultured in M2 until day 15. A volume of the medium was 200 μL for an upper layer and 700 μL for a lower layer of the cell culture insert. The medium was changed to M3-1 or M3-2 for days 15 to 21, or up to day 30. The medium was replaced every 2 days with a fresh medium.
M3-1 medium: William's Medium E supplemented with L-glutamine, HCM SingleQuots (containing neither GA1000 nor human EGF) (Lonza, CC-4182), 1% PS (Nacalai), 10 ng/ml recombinant human HGF (PeproTech 100-39), 1 μM dexamethasone (Sigma-Aldrich, D8893), 1.4 μM BIO, and 1 M calcitriol (Sigma-Aldrich, D1530). […]
For a reverse transcription reaction, 2.5 μg of RNA was reverse-transcribed using PrimeScript™ RT Master Mix (Takara, Japan). For real-time PCR analysis, mRNA expression was quantified with SyberGreen on a StepOne Plus (Applied Biosystems, Foster City, Calif.). […] A target mRNA level was expressed as an arbitrary unit, and was determined using the ΔΔ CT method.

CYP3A4 = CYP3A4 (Homo sapiens, UniProt P08684); experiment: CYP metabolism assay (midazolam hydroxylation, LC-MS/MS) in hiPS-derived enterocytes; settings: day 21 of differentiation, 120 min incubation
Caco-2 cells [3] = experiment: Transport across Caco-2 cell monolayer (literature); type: in vitro ADME, human; settings: corresponds to the literature value

Sequence of CYP3A4 (P08684 whole entry): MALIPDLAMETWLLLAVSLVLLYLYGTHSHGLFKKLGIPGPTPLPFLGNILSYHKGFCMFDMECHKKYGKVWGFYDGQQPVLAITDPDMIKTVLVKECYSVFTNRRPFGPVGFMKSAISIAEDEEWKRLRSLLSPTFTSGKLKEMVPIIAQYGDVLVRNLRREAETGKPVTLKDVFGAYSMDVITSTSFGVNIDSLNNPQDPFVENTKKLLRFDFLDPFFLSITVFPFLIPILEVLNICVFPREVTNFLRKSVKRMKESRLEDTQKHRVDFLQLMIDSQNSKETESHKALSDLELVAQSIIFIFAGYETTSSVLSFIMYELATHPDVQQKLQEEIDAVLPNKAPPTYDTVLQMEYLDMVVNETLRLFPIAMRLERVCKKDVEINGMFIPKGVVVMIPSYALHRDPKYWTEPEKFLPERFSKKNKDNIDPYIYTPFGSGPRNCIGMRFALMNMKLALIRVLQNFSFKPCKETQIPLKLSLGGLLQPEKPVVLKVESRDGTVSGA
Sequence of P-gp (P08183 whole entry): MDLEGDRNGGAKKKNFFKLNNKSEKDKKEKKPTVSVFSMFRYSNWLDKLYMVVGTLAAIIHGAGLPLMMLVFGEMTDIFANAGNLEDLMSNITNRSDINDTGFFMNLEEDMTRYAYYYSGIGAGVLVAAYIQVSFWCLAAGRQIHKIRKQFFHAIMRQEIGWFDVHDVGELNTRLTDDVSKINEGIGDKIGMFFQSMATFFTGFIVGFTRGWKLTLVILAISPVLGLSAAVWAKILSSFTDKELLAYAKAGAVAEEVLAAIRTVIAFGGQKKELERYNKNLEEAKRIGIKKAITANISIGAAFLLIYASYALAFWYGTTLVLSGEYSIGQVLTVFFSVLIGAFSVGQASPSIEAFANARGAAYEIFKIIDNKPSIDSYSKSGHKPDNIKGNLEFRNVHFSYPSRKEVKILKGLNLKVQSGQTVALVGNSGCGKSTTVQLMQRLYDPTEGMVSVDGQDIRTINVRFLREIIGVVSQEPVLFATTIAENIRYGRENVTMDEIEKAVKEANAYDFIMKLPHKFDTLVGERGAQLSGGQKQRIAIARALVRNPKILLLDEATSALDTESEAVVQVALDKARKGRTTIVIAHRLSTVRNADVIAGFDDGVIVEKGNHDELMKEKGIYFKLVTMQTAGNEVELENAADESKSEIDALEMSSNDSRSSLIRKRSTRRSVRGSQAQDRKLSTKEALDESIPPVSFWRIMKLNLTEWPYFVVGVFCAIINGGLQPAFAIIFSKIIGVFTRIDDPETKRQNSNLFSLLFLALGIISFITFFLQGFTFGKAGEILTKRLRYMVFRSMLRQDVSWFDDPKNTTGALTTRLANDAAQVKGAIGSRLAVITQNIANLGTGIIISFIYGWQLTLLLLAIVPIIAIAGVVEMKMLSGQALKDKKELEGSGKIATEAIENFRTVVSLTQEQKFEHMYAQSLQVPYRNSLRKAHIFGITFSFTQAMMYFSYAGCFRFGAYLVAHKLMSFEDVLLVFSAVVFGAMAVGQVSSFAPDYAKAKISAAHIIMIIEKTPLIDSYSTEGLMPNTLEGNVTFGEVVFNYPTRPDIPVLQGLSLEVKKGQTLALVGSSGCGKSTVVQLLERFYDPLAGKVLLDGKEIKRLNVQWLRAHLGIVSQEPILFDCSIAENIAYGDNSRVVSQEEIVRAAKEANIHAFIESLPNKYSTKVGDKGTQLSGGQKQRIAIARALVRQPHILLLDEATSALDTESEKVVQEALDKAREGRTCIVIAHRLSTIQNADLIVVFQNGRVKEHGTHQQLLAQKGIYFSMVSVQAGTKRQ

Compound: C[C@H]1O[C@@H](O[C@H]2[C@@H](O)C[C@H](O[C@H]3[C@@H](O)C[C@H](O[C@H]4CC[C@@]5(C)[C@H](CC[C@@H]6[C@@H]5C[C@@H](O)[C@]5(C)[C@@H](C7=CC(=O)OC7)CC[C@]65O)C4)O[C@@H]3C)O[C@@H]2C)C[C@H](O)[C@@H]1O [digoxin]
- directional B-to-A transport compared with A-to-B transport (P-gp): at a level higher than apical-to-basal transport

Compound: OC[C@@H](O)[C@@H](O)[C@H](O)[C@H](O)CO [mannitol]
- transport clearance across a Caco-2 cell monolayer (paracellular) (Caco-2 cells [1]; Cogburn et al. 1991): 3 %/cm^2/hr
- directional transport across a cell monolayer [2]: directional transport of neither propranolol nor mannitol across a cell monolayer was observed

Compound: C=C1/C(=C\C=C2/CCC[C@]3(C)[C@@H]([C@H](C)CCCC(C)(C)O)CC[C@@H]23)C[C@@H](O)C[C@@H]1O [calcitriol]
- CYP3A4 expression when calcitriol is removed from M3-2 medium (CYP3A4 expression): minimally expressed CYP3A4

Compound: Cc1ncc2n1-c1ccc(Cl)cc1C(c1ccccc1F)=NC2 [midazolam]
- clearance rate of formation of 1′-OH midazolam (CYP3A4): 0.773 μL/min/mg cellular protein

Compound: CC(C)NCC(O)COc1cccc2ccccc12 (centres unmarked) [propranolol]
- transcellular transport in the Caco-2 cells (Caco-2 cells [1]; Artursson 1990): 4.19e-05 cm/s
- transcellular transport in the Caco-2 cells, converted (Caco-2 cells [3]): approximately 99.4 μL/120 min/well
- transcellular transport (present result) ([2]; human, 120 min, 0.1 μCi/3 mL, pH 7.4): 48 μL/120 min/well
